Assay results reported in PubChem BioAssay AID192 (DTP/NCI, 2004).
“And” between values parts separate entries of the source, which are not always exact repeats. Equal entries are not always repeated. Inconclusive results and toxic doses are left out.

Test system: BDF1 mice, B16 melanoma ip, median survival T/C
Test: NCI In Vivo Anticancer Drug Screen. Data for tumor model B16 Melanoma (intraperitoneal) in B6D2F1 (BDF1) mice
Conditions: endpoint: median survival time, higher = longer survival
Protocol: The antitumor activity of compounds was measured in mice bearing transplantable tumors. Survival or tumor size were measured and the results are expressed as the measurement made in the treated group (T) divided by the measurement made in the vehicle treated control group (C). The tumor model used in this assay is B16 Melanoma (intraperitoneal) in B6D2F1 (BDF1) mice

[1] = dose: 50.0 mg/kg/injection, schedule: Q01DX009 (ip), vehicle: Klucel (hydroxypropylcellulose) (HPC)
[2] = dose: 100.0 mg/kg/injection, schedule: Q01DX009 (ip), vehicle: Klucel (hydroxypropylcellulose) (HPC)
[3] = dose: 25.0 mg/kg/injection, schedule: Q01DX009 (ip), vehicle: saline with Tween-80
[4] = dose: 50.0 mg/kg/injection, schedule: Q01DX009 (ip), vehicle: saline with Tween-80
[5] = dose: 100.0 mg/kg/injection, schedule: Q01DX009 (ip), vehicle: saline with Tween-80
[6] = dose: 200.0 mg/kg/injection, schedule: Q01DX009 (ip), vehicle: saline with Tween-80

## O=C(O)CC(NC(=O)CP(=O)(O)O)C(=O)O (stereo not drawn)
dose: 10.0 mg/kg/injection, schedule: Q01DX005 (ip), vehicle: saline
  T/C: 112 % of control
dose: 15.6 mg/kg/injection, schedule: Q03HX024 (ip), vehicle: saline
  T/C: 175 % of control
dose: 20.0 mg/kg/injection, schedule: Q01DX005 (ip), vehicle: saline
  T/C: 123 % of control
dose: 21.9 mg/kg/injection, schedule: Q01DX009 (ip), vehicle: saline
  T/C: 150 % of control
dose: 25.9 mg/kg/injection, schedule: Q03HX024 (ip), vehicle: saline
  T/C: 176 % of control
dose: 31.1 mg/kg/injection, schedule: Q01DX009 (ip), vehicle: saline
  T/C: 156 % of control
dose: 32.9 mg/kg/injection, schedule: Q01DX009 (ip), vehicle: saline
  T/C: 164 % of control
dose: 43.2 mg/kg/injection, schedule: Q03HX024 (ip), vehicle: saline
  T/C: 182 % of control
dose: 49.4 mg/kg/injection, schedule: Q01DX009 (ip), vehicle: saline
  T/C: 174 % of control
dose: 51.8 mg/kg/injection, schedule: Q01DX009 (ip), vehicle: saline
  T/C: 177 % of control
dose: 74.1 mg/kg/injection, schedule: Q01DX009 (ip), vehicle: saline
  T/C: 182 % of control
dose: 77.8 mg/kg/injection, schedule: Q04DX003 (ip), vehicle: saline
  T/C: 153 % of control
dose: 79.0 mg/kg/injection, schedule: Q01DX009 (ip), vehicle: saline
  T/C: 170 % of control
dose: 79.0 mg/kg/injection, schedule: Q01DX009 (sc), vehicle: saline
  T/C: 165 % of control
dose: 86.4 mg/kg/injection, schedule: Q01DX004 (ip), vehicle: saline
  T/C: 173 % of control
dose: 86.4 mg/kg/injection, schedule: Q01DX009 (ip), vehicle: saline
  T/C: 177 % of control
dose: 111.0 mg/kg/injection, schedule: Q01DX009 (ip), vehicle: saline
  T/C: 201 % of control
dose: 117.0 mg/kg/injection, schedule: Q04DX003 (oral), vehicle: saline
  T/C: 106 % of control
dose: 118.0 mg/kg/injection, schedule: Q01DX009 (ip), vehicle: saline
  T/C: 185 % of control
dose: 118.0 mg/kg/injection, schedule: Q01DX009 (oral), vehicle: saline
  T/C: 100 % of control
dose: 118.0 mg/kg/injection, schedule: Q01DX009 (sc), vehicle: saline
  T/C: 176 % of control
dose: 125.0 mg/kg/injection, schedule: Q04DX003 (ip), vehicle: saline
  T/C: 162 % of control
dose: 130.0 mg/kg/injection, schedule: Q04DX003 (ip), vehicle: saline
  T/C: 168 % of control and 171 % of control
dose: 144.0 mg/kg/injection, schedule: Q01DX004 (ip), vehicle: saline
  T/C: 178 % of control
dose: 144.0 mg/kg/injection, schedule: Q01DX009 (ip), vehicle: saline
  T/C: 199 % of control
dose: 160.0 mg/kg/injection, schedule: Q01DX005 (ip), vehicle: saline
  T/C: 159 % of control
dose: 167.0 mg/kg/injection, schedule: Q01DX009 (ip), vehicle: saline
  T/C: 204 % of control
dose: 177.0 mg/kg/injection, schedule: Q01DX009 (ip), vehicle: saline
  T/C: 177 % of control
dose: 177.0 mg/kg/injection, schedule: Q01DX009 (sc), vehicle: saline
  T/C: 178 % of control
dose: 194.0 mg/kg/injection, schedule: Q04DX003 (oral), vehicle: saline
  T/C: 110 % of control
dose: 216.0 mg/kg/injection, schedule: Q04DX003 (ip), vehicle: saline
  T/C: 161 % of control and 201 % of control
dose: 240.0 mg/kg/injection, schedule: Q01DX004 (ip), vehicle: saline
  T/C: 183 % of control
dose: 250.0 mg/kg/injection, schedule: Q01DX009 (ip), vehicle: saline
  T/C: 190 % of control
dose: 250.0 mg/kg/injection, schedule: Q04DX003 (ip), vehicle: saline
  T/C: 182 % of control
dose: 320.0 mg/kg/injection, schedule: Q01DX005 (ip), vehicle: saline
  T/C: 175 % of control
dose: 324.0 mg/kg/injection, schedule: Q01DX001 (ip), vehicle: saline
  T/C: 168 % of control
dose: 324.0 mg/kg/injection, schedule: Q04DX003 (oral), vehicle: saline
  T/C: 95 % of control
dose: 360.0 mg/kg/injection, schedule: Q04DX003 (ip), vehicle: saline
  T/C: 171 % of control and 227 % of control
dose: 400.0 mg/kg/injection, schedule: Q01DX001 (oral), vehicle: saline
  T/C: 97 % of control
dose: 400.0 mg/kg/injection, schedule: Q01DX004 (ip), vehicle: saline
  T/C: 46 % of control
dose: 500.0 mg/kg/injection, schedule: Q04DX003 (ip), vehicle: saline
  T/C: 197 % of control
dose: 540.0 mg/kg/injection, schedule: Q01DX001 (ip), vehicle: saline
  T/C: 174 % of control
dose: 540.0 mg/kg/injection, schedule: Q04DX003 (oral), vehicle: saline
  T/C: 110 % of control
dose: 600.0 mg/kg/injection, schedule: Q04DX003 (ip), vehicle: saline
  T/C: 86 % of control and 201 % of control
dose: 900.0 mg/kg/injection, schedule: Q01DX001 (ip), vehicle: saline
  T/C: 154 % of control and 190 % of control
dose: 900.0 mg/kg/injection, schedule: Q01DX001 (oral), vehicle: saline
  T/C: 100 % of control
dose: 900.0 mg/kg/injection, schedule: Q01DX001 (sc), vehicle: saline
  T/C: 154 % of control
dose: 1350.0 mg/kg/injection, schedule: Q01DX001 (ip), vehicle: saline
  T/C: 150 % of control
dose: 1350.0 mg/kg/injection, schedule: Q01DX001 (sc), vehicle: saline
  T/C: 120 % of control
dose: 1500.0 mg/kg/injection, schedule: Q01DX001 (ip), vehicle: saline
  T/C: 119 % of control

## CCS/C(SC)=C(/c1ccccc1)[P+](c1ccccc1)(c1ccccc1)c1ccccc1
dose: 0.19 mg/kg/injection, schedule: Q01DX009 (ip), vehicle: Klucel (hydroxypropylcellulose) (HPC)
  T/C: 99 % of control
dose: 0.38 mg/kg/injection, schedule: Q01DX009 (ip), vehicle: Klucel (hydroxypropylcellulose) (HPC)
  T/C: 99 % of control
dose: 0.75 mg/kg/injection, schedule: Q01DX009 (ip), vehicle: Klucel (hydroxypropylcellulose) (HPC)
  T/C: 100 % of control
dose: 1.5 mg/kg/injection, schedule: Q01DX009 (ip), vehicle: Klucel (hydroxypropylcellulose) (HPC)
  T/C: 95 % of control and 106 % of control

## O=C(O)C1CCCCC1C(=O)Nc1ccc(Cl)cc1 (stereo not drawn)
[1]
  T/C: 114 % of control
[2]
  T/C: 105 % of control
dose: 200.0 mg/kg/injection, schedule: Q01DX009 (ip), vehicle: Klucel (hydroxypropylcellulose) (HPC)
  T/C: 107 % of control

## CNC(Cc1ccccc1)c1ccccc1 (stereo not drawn)
dose: 25.0 mg/kg/injection, schedule: Q01DX009 (ip), vehicle: Klucel (hydroxypropylcellulose) (HPC)
  T/C: 105 % of control
[1]
  T/C: 105 % of control
[2]
  T/C: 113 % of control

## [O-]c1cc2c3c(c1)c1cc4c(cc1c[n+]3C=C2)OCO4
dose: 3.13 mg/kg/injection, schedule: Q01DX009 (ip), vehicle: water
  T/C: 96 % of control
dose: 6.25 mg/kg/injection, schedule: Q01DX009 (ip), vehicle: water
  T/C: 121 % of control
dose: 12.5 mg/kg/injection, schedule: Q01DX009 (ip), vehicle: water
  T/C: 122 % of control
dose: 25.0 mg/kg/injection, schedule: Q01DX009 (ip), vehicle: water
  T/C: 124 % of control
dose: 50.0 mg/kg/injection, schedule: Q01DX009 (ip), vehicle: water
  T/C: 114 % of control

## OCCOc1c(Cl)c(Cl)c(Cl)c(Cl)c1Cl
[3]
  T/C: 100 % of control
[4]
  T/C: 92 % of control
[5]
  T/C: 97 % of control

## CN(C)N=Nc1c(Cl)cc(Cl)cc1C(N)=O
[5]
  T/C: 119 % of control
[6]
  T/C: 115 % of control

## CCCCOC(=O)C(C)OC(=O)Nc1cccc(Cl)c1 (stereo not drawn)
[5]
  T/C: 88 % of control
[6]
  T/C: 100 % of control
dose: 400.0 mg/kg/injection, schedule: Q01DX009 (ip), vehicle: saline with Tween-80
  T/C: 92 % of control

## CC1(C)N=C(N)N=C(N)N1c1ccc(OCCNS(=O)(=O)c2cccc(S(=O)(=O)F)c2)c(Cl)c1
dose: 12.5 mg/kg/injection, schedule: Q01DX009 (ip), vehicle: saline with Tween-80
  T/C: 107 % of control
[3]
  T/C: 113 % of control
[4]
  T/C: 120 % of control

## O=CC(NC(=O)N(CCF)N=O)C(O)C(O)C(O)CO (stereo not drawn)
dose: 3.12 mg/kg/injection, schedule: Q01DX001 (ip), vehicle: saline
  T/C: 100 % of control
dose: 25.0 mg/kg/injection, schedule: Q01DX001 (ip), vehicle: saline
  T/C: 171 % of control
dose: 50.0 mg/kg/injection, schedule: Q01DX001 (ip), vehicle: saline
  T/C: 189 % of control
dose: 100.0 mg/kg/injection, schedule: Q01DX001 (ip), vehicle: saline
  T/C: 231 % of control

## CN=C(N)NC
dose: 50.0 mg/kg/injection, schedule: Q01DX009 (ip), vehicle: saline
  T/C: 95 % of control
dose: 100.0 mg/kg/injection, schedule: Q01DX009 (ip), vehicle: saline
  T/C: 98 % of control
dose: 200.0 mg/kg/injection, schedule: Q01DX009 (ip), vehicle: saline
  T/C: 104 % of control
